Measurements taken from article PMC5947727, “Crystal structures of Lymphocytic choriomeningitis virus endonuclease domain complexed with diketo-acid ligands” (IUCrJ, 2018).

Tests used:
[1] = molecular target: T1, LCMV endonuclease domain (ENDO, ENDO-WT) (Lymphocytic choriomeningitis virus (strain Armstrong), UniProt P14240); assay: biochemical; type: binding
T1 construct: gene L; N-terminal endonuclease domain of L (residues 1-196), N-terminal hexahistidine tag, pDEST14, E. coli Rosetta (DE3) pLysS; IMAC, Q Sepharose, Superdex 200

[2] = molecular target: T2, LCMV endonuclease domain (ENDO, ENDO-WT) (Lymphocytic choriomeningitis virus (strain Armstrong), UniProt P14240, D119A); assay: biochemical; type: binding
T2 construct: gene L; N-terminal endonuclease domain of L (residues 1-196), N-terminal hexahistidine tag, pDEST14, E. coli Rosetta (DE3) pLysS; IMAC, Q Sepharose, Superdex 200

SMILES	Kd [1]	Kd [2]
O=C(O)C(=O)CC(=O)c1ccccc1 [compound 1, 2,4-dioxo-4-phenylbutanoic acid]	5.38 ± 2.06 µM	18.8 ± 3.88 µM
O=C(O)/C(O)=C/C(=O)C1(Cc2ccc(Cl)cc2)CCN(Cc2ccccc2)CC1 [compound 2, (Z)-4-{1-benzyl-4-[(4-chlorophenyl)methyl]piperidin-4-yl}-2-hydroxy-4-oxobut-2-enoic acid]	0.51 ± 0.11 µM	0.89 ± 0.06 µM
O=C(O)C(O)=CC(=O)c1ccc(-c2ccccc2)cc1 [compound 3, 2-hydroxy-4-(biphenyl-4-yl)-4-oxobut-2-enoic acid]	0.05 ± 0.02 µM	–
O=C(O)C(O)=CC(=O)c1ccc2ccc3ccccc3c2c1 [compound 4, 2-hydroxy-4-oxo-4-(phenanthren-3-yl)but-2-enoic acid]	0.25 ± 0.07 µM	–
